This assay deals with T1, NMDA receptor composed of four subunits including 2 sets of heterodimers of NR1 and NR2B (Homo sapiens, UniProt Q13224).
T1 construct: host or cells: HEK293 (tetracycline-induced expression)
As to the kind of experiment: NR2B Ca2+ influx assay (FLIPR, Fluo-4) in HEK293 cells expressing human GRIN1 and GRIN2B. The note with it: HEK293, 10 μM final compound concentration, glutamic acid/glycine-induced Ca2+ influx, read-out: inhibitory rate (10 μM compound concentration). In kind it is cell-based. From the text: To confirm the “antagonistic action on an NMDA receptor containing the NR2B subunit” of the compound of the present invention, human embryonic kidney cell expressing the “NMDA receptor composed of four subunits including 2 sets of heterodimers of NR1 and NR2B”, specifically HEK293 cell expressing human glutamate ionotropic receptor NMDA type subunit 1 (GRIN1) and human glutamate ionotropic receptor NMDA type subunit 2B (GRIN2B), was used and the activation suppressive effect on the receptors was measured.
As an index of the NMDA receptor activation, intracellular calcium ion (Ca^2+) influx caused by the binding of glycine and glutamic acid with NR1 and NR2B, respectively, was used. HEK293 cells were purchased from ChanTest. The cells were cultured in a DMEM/F-12 (COSMO BIO, 10-092-CM) medium added with 10% FBS′(fetal bovine serum, AusGene), 100 units/mL penicillin, 100 μg/mL streptomycin, 500 μg/mL neomycin, 100 μg/mL Zeocin, 5 μg/mL Blasticidin at 37° C., 5% CO2. The cells were detached from flask with trypsin the day before the assay, suspended in a seeding medium (DMEM (Invitrogen, 31053) added with 10% FBS, 100 units/mL penicillin, 100 μg/mL streptomycin) at 8×10^5 cells/mL, seeded by 25 μL per well in a 384-well plate (Falcon, 356663) at 20000 cells/well, and cultured overnight in an incubator. On the day of the assay, tetracycline (Wako Pure Chemical Industries, Ltd., 209-16561) was diluted with the seeding medium at 2 μg/mL, added at […] to the plate seeded with the cells, and cultured for 2 hr in an incubator. Thereafter, the medium was removed, and the cells were washed with 50 μL/well assay buffer (137 mM NaCl, 4 mM KCl, 1.8 mM CaCl2, 10 mM HEPES (pH 7.2), 10 mM Glucose, 0.1% BSA). Then, a loading buffer (assay buffer added with 2.5 uM Fluo-4AM, 2 mM Amaranth, 1 mM Tartrazine) was added at 25 μL/well, and loading was performed in the incubator for 30 min, and at room temperature for 15 min. A solution (25 μL) of the Example compound diluted with the above-mentioned assay buffer at 30 μM (final concentration 10 μM) was added, and the cells were stood for 15 min at room temperature. Using FLIPR (Molecular Devices), 25 μL of an assay buffer containing 30 μM glutamic acid, 30 μM glycine was added, and the fluorescence signal was measured every 3 seconds for 5 min. The inhibitory activity was calculated as a relative activity value (inhibitory rate) that inhibits 100% of the cumulative value of the fluorescence value of a well added with a buffer free of glutamic acid, glycine, relative to the cumulative value of the fluorescence value of each well.

Where a name gives a salt, the structure may show the parent alone.

T1 sequence (Q13224 27-1484, other chains not shown): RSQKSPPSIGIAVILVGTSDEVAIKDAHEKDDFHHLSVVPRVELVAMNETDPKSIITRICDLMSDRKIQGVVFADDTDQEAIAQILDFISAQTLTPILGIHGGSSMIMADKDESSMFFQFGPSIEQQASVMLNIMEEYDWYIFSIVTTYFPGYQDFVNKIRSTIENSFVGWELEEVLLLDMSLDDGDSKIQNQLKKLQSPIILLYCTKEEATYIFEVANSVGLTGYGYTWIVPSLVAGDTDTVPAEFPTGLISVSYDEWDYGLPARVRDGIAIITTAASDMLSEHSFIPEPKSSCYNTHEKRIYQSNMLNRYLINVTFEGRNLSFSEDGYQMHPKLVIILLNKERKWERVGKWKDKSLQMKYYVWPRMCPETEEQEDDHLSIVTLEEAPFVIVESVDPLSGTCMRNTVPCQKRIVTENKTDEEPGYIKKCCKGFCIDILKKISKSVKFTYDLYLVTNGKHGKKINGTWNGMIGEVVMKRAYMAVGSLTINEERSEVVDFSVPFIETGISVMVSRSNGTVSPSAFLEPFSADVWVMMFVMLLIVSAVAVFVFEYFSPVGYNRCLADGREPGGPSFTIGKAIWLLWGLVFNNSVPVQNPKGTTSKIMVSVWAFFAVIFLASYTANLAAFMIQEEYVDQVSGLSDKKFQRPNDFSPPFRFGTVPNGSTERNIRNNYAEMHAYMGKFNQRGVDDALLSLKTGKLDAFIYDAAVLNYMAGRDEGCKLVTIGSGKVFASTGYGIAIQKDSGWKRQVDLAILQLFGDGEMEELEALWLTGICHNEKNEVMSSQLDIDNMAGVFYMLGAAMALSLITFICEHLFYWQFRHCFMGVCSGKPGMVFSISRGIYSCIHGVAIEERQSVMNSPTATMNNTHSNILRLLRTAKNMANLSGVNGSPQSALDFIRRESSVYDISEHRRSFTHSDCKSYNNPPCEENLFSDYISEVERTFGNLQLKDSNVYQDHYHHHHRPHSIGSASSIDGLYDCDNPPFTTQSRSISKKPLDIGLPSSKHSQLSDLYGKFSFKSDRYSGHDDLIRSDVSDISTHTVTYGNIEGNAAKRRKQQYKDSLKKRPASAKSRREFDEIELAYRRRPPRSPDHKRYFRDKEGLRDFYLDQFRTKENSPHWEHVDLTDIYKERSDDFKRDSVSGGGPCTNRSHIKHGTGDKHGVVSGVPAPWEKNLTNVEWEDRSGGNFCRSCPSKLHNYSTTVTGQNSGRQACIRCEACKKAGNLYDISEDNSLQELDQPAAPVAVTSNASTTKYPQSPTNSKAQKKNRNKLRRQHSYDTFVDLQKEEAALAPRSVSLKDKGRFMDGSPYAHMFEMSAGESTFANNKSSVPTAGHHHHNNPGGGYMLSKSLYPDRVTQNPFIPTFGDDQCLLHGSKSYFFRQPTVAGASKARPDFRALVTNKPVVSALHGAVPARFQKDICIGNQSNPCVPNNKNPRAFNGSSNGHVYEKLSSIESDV

In the case of `COc1cc(C(=O)NCc2c(OC)ccc3ncn(C)c23)ccc1Cl` [Example 45, 4-chloro-3-methoxy-N-((6-methoxy-1-methyl-1H-benzimidazol-7-yl)methyl)benzamide], the inhibition at 10 µM is 64%.
Then `O=C(NCc1c(C2CC2)ccc2[nH]ncc12)c1ccc(OC(F)F)c(Cl)c1` [Example 107, 3-chloro-N-((5-cyclopropyl-1H-indazol-yl)methyl)-4-(difluoromethoxy)-benzamide], with 93%.
The value for `O=C(NCc1c(C2CC2)ccc2[nH]nnc12)c1ccc(OC(F)F)c(F)c1` [Example 212, N-((5-cyclopropyl-1H-benzotriazol-4-yl)methyl)-4-(difluoromethoxy)-3-fluorobenzamide] was 93%; that for `CCc1ccc(C(=O)NCc2c(OC)ccc3ncn(C)c23)s1` [Example 122, 5-ethyl-N-((6-methoxy-1-methyl-1H-benzimidazol-7-yl)methyl)thiophene-2-carboxamide] was 90%.
The value for `COc1ccc2nc(C)n(C)c2c1CNC(=O)c1csc(C(F)(F)F)c1` [Example 230, N-((6-methoxy-1,2-dimethyl-1H-benzimidazol-7-yl)methyl)-5-(trifluoromethyl)-thiophene-3-carboxamide] was 82%; that for `CCOc1ccc2ncn(C)c2c1CNC(=O)c1ccc(C(F)F)c(F)c1` [Example 141, 4-(difluoromethyl)-N-((6-ethoxy-1-methyl-1H-benzimidazol-7-yl)methyl)-3-fluorobenzamide] was 90%.
For `CCc1ccc2ncn(C)c2c1CNC(=O)c1cc(F)c(OC)c(F)c1` [Example 23, N-((6-ethyl-1-methyl-1H-benzimidazol-7-yl)-methyl)-3,5-difluoro-4-methoxybenzamide], the inhibition at 10 µM is 93%.
Then `COc1ccc2ncn(C)c2c1CNC(=O)c1ccc(C)c(F)c1` [Example 14, 3-fluoro-N-((6-methoxy-1-methyl-1H-benzimidazol-7-yl)methyl)-4-methylbenzamide], with 92%; and `O=C(NCc1c(C2CC2)ccc2[nH]ncc12)c1cc(F)c(Cl)c(Cl)c1` [Example 87, 3,4-dichloro-N-((5-cyclopropyl-1H-indazol-4-yl)methyl)-5-fluorobenzamide], with 94%.
The value for `O=C(NCc1c(C2CC2)ccc2[nH]ncc12)c1ccc(OC(F)(F)F)c(F)c1` [Example 88, N-((5-cyclopropyl-1H-indazol-4-yl)methyl)-3-fluoro-4-(trifluoro-methoxy)benzamide] was 93%.
The value for `CCc1ccc2ncn(C)c2c1CNC(=O)c1cnc(OC(F)F)c(F)c1` [Example 143, 6-(difluoromethoxy)-N-((6-ethyl-1-methyl-1H-benzimidazol-7-yl)methyl)-5-fluoronicotinamide] was 91%.
Turning to `Cc1ccc2[nH]nnc2c1CNC(=O)c1cc(F)c(Cl)c(F)c1` [Example 198, 4-chloro-3,5-difluoro-N-((5-methyl-1H-benzotriazol-4-yl)methyl)benzamide], the inhibition at 10 µM stood at 90%.
Then `COCc1ccc2ncn(C)c2c1CNC(=O)c1ccc(C(F)(F)F)cc1` [Example 280, N-{[6-(methoxymethyl)-1-methyl-1H-benzimidazol-7-yl]methyl}-4-(trifluoromethyl)-benzamide], with 75%; and `COc1ccc2ncn(C)c2c1CNC(=O)c1cc(F)c(F)c(Cl)c1` [Example 18, 3-chloro-4,5-difluoro-N-((6-methoxy-1-methyl-1H-benzimidazol-7-yl)methyl)benzamide], with 87%.
The value for `O=C(NCc1cccc2[nH]ncc12)c1ccc(C(F)(F)F)c(F)c1` [Example 174, 3-fluoro-N-(1H-indazol-4-ylmethyl)-4-(trifluoromethyl)-benzamide] was 80%; that for `Cc1ccc2ncn(C)c2c1CNC(=O)c1csc(C2CC2)c1` [Example 144, 5-cyclopropyl-N-((1,6-dimethyl-1H-benzimidazol-7-yl)methyl)thiophene-3-carboxamide] was 90%; that for `O=C(NCc1cccc2[nH]ncc12)c1ccc(OC(F)F)cc1` [Example 183, 4-(difluoromethoxy)-N-(1H-indazol-4-ylmethyl)benzamide] was 87%.
The value for `Cc1ccc2[nH]ncc2c1CNC(=O)c1ccc(OC(F)(F)F)cc1` [Example 2, N-((5-methyl-1H-indazol-4-yl)methyl)-4-(trifluoromethoxy)benzamide] was 92%.
Regarding `Cc1ccc2[nH]nnc2c1CNC(=O)c1cnc(OC(F)F)c(F)c1` [Example 268, 6-(difluoromethoxy)-5-fluoro-N-((5-methyl-1H-benzotriazol-4-y1)methyl)nicotinamide], the inhibition at 10 µM is 97%.
As for `Cc1ccc2[nH]nnc2c1CNC(=O)c1cc(F)c(F)c(Cl)c1` [Example 202, 3-chloro-4,5-difluoro-N-((5-methyl-1H-benzotriazol-4-yl)methyl)benzamide], the inhibition at 10 µM was determined as 83%.
The value for `COc1ccc(C(=O)NCc2cccc3[nH]ncc23)cc1F` [Example 181, 3-fluoro-N-(1H-indazol-4-ylmethyl)-4-methoxybenzamide] was 67%; that for `COc1ccc(C(=O)NCc2c(OC)ccc3ncn(C)c23)s1` [Example 48, 5-methoxy-N-((6-methoxy-1-methyl-1H-benzimidazol-7-yl)methyl)thiophene-2-carboxamide] was 84%.
Then `Cc1ccc2ncn(C)c2c1CNC(=O)c1ccc(OC(F)(F)F)nc1` [Example 138, N-((1,6-dimethyl-1H-benzimidazol-7-yl)methyl)-6-(trifluoromethoxy)-nicotinamide], with 88%; and `O=C(NCc1c(C2CC2)ccc2[nH]ncc12)c1cc(F)c(C(F)(F)F)c(F)c1` [Example 91, N-((5-cyclopropyl-1H-indazol-4-yl)methyl)-3,5-difluoro-4-(trifluoro-methyl)benzamide], with 94%; and `COc1ccc2ncn(C)c2c1CNC(=O)c1ccc(C(F)(F)F)s1` [Example 162, N-((6-methoxy-1-methyl-1H-benzimidazol-7-yl)methyl)-5-(trifluoromethyl)-thiophene-2-carboxamide hydrochloride], with 92%.
Consider `COc1ccc2ncn(C)c2c1CNC(=O)Nc1ccc(C(F)(F)F)cc1` [Example 262, 1-((6-methoxy-1-methyl-1H-benzimidazol-7-yl)methyl)-3-(4-(trifluoromethyl)-phenyl)urea], for which the inhibition at 10 µM was found to be 91%.
Then `COc1ccc2nc(C)n(C)c2c1CNC(=O)c1ccc(C(F)F)cc1` [Example 241, 4-(difluoromethyl)-N-((6-methoxy-1,2-dimethyl-lH-benzimidazol-7-yl)methyl)benzamide], with 70%.
On to `COc1ccc2ncn(C)c2c1CNC(=O)c1ccc(C(F)(F)F)c(Cl)c1` [Example 51, 3-chloro-N-((6-methoxy-1-methyl-1H-benzimidazol-7-yl)-methyl)-4-(trifluoro-methyl)benzamide], for which the inhibition at 10 µM worked out at 90%.
The value for `COc1ccc2ncn(C)c2c1CNC(=O)c1cc(F)c(OC)c(F)c1` [Example 8, 3,5-Difluoro-4-methoxy-N-((6-methoxy-1-methyl-1H-benzimidazol-7-yl)methyl)benzamide] was 92%.
With `CCc1ccc2ncn(C)c2c1CNC(=O)c1csc(C(F)F)c1` [Example 132, 5-(difluoromethyl)-N-((6-ethyl-1-methyl-1H-benzimidazol-7-yl)methyl)thiophene-3-carboxamide], the inhibition at 10 µM stood at 90%.
Then `O=C(NCc1c(C2CC2)ccc2[nH]ncc12)c1csc(Cl)c1` [Example 69, 5-chloro-N-((5-cyclopropyl-1H-indazol-4-yl)methyl)thiophene-3-carboxamide], with 93%; and `O=C(NCc1c(C2CC2)ccc2[nH]ncc12)c1cc(Cl)cs1` [Example 70, 4-chloro-N-((5-cyclopropyl-1H-indazol-4-yl)methyl)thiophene-2-carboxamide], with 92%.

Values taken from US11230541B2, “Heterocyclic compound” (Takeda Pharmaceutical Company Limited, priority 2017, dated 2022).
